Assay type in all cases: cell-based
Test [1] concerns Ishikawa (K-Ras wild type cell line). Description: Viability assay (CellTiterBlue, 72 hr) Ishikawa. As to conditions: Homo sapiens, GI50, CellTiterBlue, Ishikawa K-Ras wild-type. An outline of the steps: (§1)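 Cells were seeded at 1000 per well and allowed 18 hr at 37 °C in CO2 before compound addition (final DMSO 0.5%). After 72 hr exposure, CellTiterBlue was added for 3 hr and fluorescence read at Ex550/Em590. GI50 values were calculated against DMSO (100%) and 100 uM tamoxifen (0%) controls.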

The target of another test is T1, K-Ras G12D (Homo sapiens, UniProt P01116, G12D).
T1 construct: expressed in transfected cells; host or cells: 293H cells
T1 sequence (P01116 whole entry G12D): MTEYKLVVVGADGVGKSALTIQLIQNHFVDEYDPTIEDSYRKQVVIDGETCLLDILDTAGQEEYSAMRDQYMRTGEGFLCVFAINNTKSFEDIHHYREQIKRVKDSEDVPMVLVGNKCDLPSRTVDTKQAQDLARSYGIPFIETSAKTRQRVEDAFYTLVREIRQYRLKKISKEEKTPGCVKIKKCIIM
Kind of test: G-LISA Ras activation, 293H cells transfected with G12D mutant. The conditions noted are these: compound 1 hour. An outline of the steps:
(§2)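 Mutant or wild-type Ras was expressed transiently in 293H cells, which were incubated 1 hour with compound across 3.125-25 μM. G-LISA on cold lysates gave Ras activation, wild-type cells having first been EGF-stimulated (100 ng/ml, 2 min).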

The target of the next test is T2, wild type K-Ras (Homo sapiens, UniProt P01116).
T2 construct: expressed in transfected cells; host or cells: 293H cells
T2 sequence (P01116 whole entry): as the sequence (P01116 whole entry G12D) above, with D12G counted along it
Description: G-LISA Ras activation, 293H cells transfected with Ras wild-type, EGF stimulated. As to conditions: compound 1 hour, then 100 ng/ml EGF 2 minutes. An outline of the steps:
as §2

A further test concerns Panc10.05-G12D. Description: Viability assay (CellTiterBlue, 72 hr) Panc10.05. The conditions noted are these: Homo sapiens, Panc1005, GI50, CellTiterBlue, Panc10.05 K-Ras G12D, read-out: 72 hr Cell Viability Panc10.05 (G12D). An outline of the steps:
as §1

The test system of test [2] is U87-MG (K-Ras wild type cell line). Kind of test: Viability assay (CellTiterBlue, 72 hr) U87-MG. As to conditions: Homo sapiens, U-87 MG, GI50, CellTiterBlue, U87-MG K-Ras wild-type. An outline of the steps: as §1
Another test has as its system Panc1-G12D. Kind of test: Viability assay (CellTiterBlue, 72 hr) Panc1. The conditions noted are these: Homo sapiens, PANC-1, GI50, CellTiterBlue, Panc1 K-Ras G12D, read-out: 72 hr Cell Viability Panc1 (G12D). Put shortly: as §1
The test system of test [3] is phospho-ERK in Panc1 (G12D). Description: In-Cell Western phospho-ERK, Panc1. As to conditions: Homo sapiens, PANC-1, 1 h; Panc1, one hour treatment; read-out: In-Cell Western Panc1 (G12D) Erk (P). Put shortly:
(§3)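 Read-out: imaged cellular fluorescence after phospho-ERK/phospho-Akt immunostaining; EC50 derived. Cells plated 3000/well, 18 hr 37° C, compound 1 hr, 0.5% DMSO. Full-inhibition controls: 1 uM BEZ235 (pAkt), 1 uM MEK Inhibitor II (pERK).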

Test [4] relates to phospho-ERK in Panc10.05 (G12D). Description: In-Cell Western phospho-ERK, Panc10.05. The conditions noted are these: Homo sapiens, Panc1005, 1 h; Panc10.05, one hour treatment; read-out: In-Cell Western Panc10.05 (G12D) Erk (P). Put shortly: as §3
Another test has as its target T3, K-Ras G12V (Homo sapiens, UniProt P01116, G12V).
T3 construct: expressed in transfected cells; host or cells: 293H cells
Description: G-LISA Ras activation, 293H cells transfected with G12V mutant. The conditions noted are these: compound 1 hour. The procedure:
293H cells were seeded in 6-wells at 0.6×10^6 cells per well and transfected next day with 5 μg of Ras wild-type, or G12C, G12D or G12V mutant DNA plasmid vector using transfection reagent Lipofectamine 3000. Next day cells were treated with 3.125-25 μM of Ras compounds for 1 hour. Wild-type transfected cells were subsequently treated with 100 ng/ml EGF for 2 minutes. Cells were washed once in ice-cold PBS, lysed in complete lysis buffer on ice, and processed by G-LISA according to Cytoskeleton protocol.

Test [5] deals with phospho-Akt in Panc10.05 (G12D). Description: In-Cell Western phospho-Akt, Panc10.05. The conditions noted are these: Homo sapiens, Panc1005, 1 h; Panc10.05, one hour treatment; read-out: In-Cell Western Panc10.05 (G12D) Akt (P). Put shortly:
as §3

The next test concerns HCT116-G31D. Kind of test: Viability assay (CellTiterBlue, 72 hr) HCT116. As to conditions: Homo sapiens, HCT-116, GI50, CellTiterBlue, HCT116 K-Ras G13D, read-out: 72 hr Cell Viability HCT116 (G13D). Put shortly:
as §1

Test [6] has as its system phospho-ERK in HCC827 (Wild-type). Description: In-Cell Western phospho-ERK, HCC827. As to conditions: Homo sapiens, 1 h; HCC827, one hour treatment; read-out: In-Cell Western HCC827 (Wild-type) Erk (P). An outline of the steps:
as §3

The subject of test [7] is phospho-Akt in A375 (Wild-type). Kind of test: In-Cell Western phospho-Akt, A375. The conditions noted are these: Homo sapiens, A-375, 1 h; A375, one hour treatment; read-out: In-Cell Western A375 (Wild-type) Akt (P). An outline of the steps: as §3
In test [8] the test system is phospho-ERK in A375 (Wild-type). Description: In-Cell Western phospho-ERK, A375. The conditions noted are these: Homo sapiens, A-375, 1 h; A375, one hour treatment; read-out: In-Cell Western A375 (Wild-type) Erk (P). Put shortly: as §3
The test system of test [9] is HCC827 (K-Ras wild type cell line). Description: Viability assay (CellTiterBlue, 72 hr) HCC827. As to conditions: Homo sapiens, GI50, CellTiterBlue, HCC827 K-Ras wild-type. Put shortly: as §1
Test [10] has as its system phospho-Akt in Panc1 (G12D). Description: In-Cell Western phospho-Akt, Panc1. As to conditions: Homo sapiens, PANC-1, 1 h; Panc1, one hour treatment; read-out: In-Cell Western Panc1 (G12D) Akt (P). An outline of the steps:
as §3

Test [11] has as its system phospho-Akt in HCC827 (Wild-type). Kind of test: In-Cell Western phospho-Akt, HCC827. As to conditions: Homo sapiens, 1 h; HCC827, one hour treatment; read-out: In-Cell Western HCC827 (Wild-type) Akt (P). An outline of the steps:
as §3

For test [12], the system named is A375 (K-Ras wild type cell line). Description: Viability assay (CellTiterBlue, 72 hr) A375. The conditions noted are these: Homo sapiens, A-375, GI50, CellTiterBlue. An outline of the steps:
as §1

From patent US10344026B2, “Compositions and methods of targeting mutant K-ras” (NANTBIO, INC., priority 2017, dated 2019) come the findings set out here.

Some results are limits rather than exact numbers.

T3 sequence (P01116 whole entry G12V): as the sequence (P01116 whole entry G12D) above, with D12V counted along it

Consider `Cc1nc(C2CC2)oc1C(=O)Nc1nc(-c2ccc3c(c2)CCC(=O)N3)cs1` [Compound 6, 2-cyclopropyl-4-methyl-N-(4-(2-oxo-1,2,3,4-tetrahydroquinolin-6-yl)thiazol-2-yl)oxazole-5-carboxamide], for which the IC50 in test [1] came to 10 µM; against K-Ras G12D it was 7.3 µM; against wild type K-Ras it was 10.6 µM; in the test on Panc10.05-G12D, 3.6 µM; in [2], 5 µM; in the test on Panc1-G12D, 2.4 µM. In addition, the values for the IC50 against K-Ras G12V and with HCT116-G31D were 19.4 µM and > 25 µM, respectively. In addition, the EC50 was 4 µM in [3], 2 µM in test [4] and 3 µM in test [5].

With `Cc1nc(C2CCC2)oc1C(=O)Nc1nc(-c2ccc3c(c2)CCC(=O)N3)cs1` [Compound 8, 2-cyclobutyl-4-methyl-N-(4-(2-oxo-1,2,3,4-tetrahydroquinolin-6-yl)thiazol-2-yl)oxazole-5-carboxamide], the IC50 in [1] was > 25 µM; against K-Ras G12D, 5.9 µM; against wild type K-Ras it was 15.5 µM; in the test with Panc10.05-G12D it was 1.3 µM; in the test on Panc1-G12D, 17 µM; in [9], > 25 µM. The IC50 at K-Ras G12V and in the test with HCT116-G31D was > 25 µM in each case. For the same compound, the EC50 in test [6] was > 25 µM; in [3] it was > 25 µM; in test [7], > 25 µM; in test [8], > 25 µM; in test [4] it was 2 µM; in [10], > 25 µM. Besides, the EC50 in [5] worked out at 6 µM.

Take `Cc1nc(C2CC2)oc1C(=O)Nc1nc(-c2ccc3c(c2)CCC(=O)N3Cc2ccccc2)cs1` [Compound 58, N-(4-(1-benzyl-2-oxo-1,2,3,4-tetrahydroquinolin-6-yl)thiazol-2-yl)-2-cyclopropyl-4-methyloxazole-5-carboxamide]: the IC50 in test [1] was 2.3 µM; against K-Ras G12D, 5.2 µM; at wild type K-Ras, 20.4 µM; in the test with Panc10.05-G12D, 3.4 µM; in test [2], 4 µM; in the test on Panc1-G12D it was 1.7 µM. Besides, the IC50 at K-Ras G12V worked out at 21.6 µM; with HCT116-G31D, 4 µM. Also, the figures for the EC50 in test [10] and in test [5] were 6 µM and 3 µM, respectively.

On to `Cc1nn(-c2ccc(F)cc2)c(C)c1C(=O)Nc1nc(-c2ccc3c(c2)CCC(=O)N3)cs1` [Compound 54, 1-(4-fluorophenyl)-3,5-dimethyl-N-(4-(2-oxo-1,2,3,4-tetrahydroquinolin-6-yl)thiazol-2-yl)-1-pyrazole-4-carboxamide], for which the IC50 in test [1] is > 25 µM; at K-Ras G12D it was 7.9 µM; at wild type K-Ras, 10.6 µM; with Panc10.05-G12D it was 6 µM; in [2] it was 15 µM; with Panc1-G12D, 15 µM. The IC50 stood at 13 µM in test [9], 26 µM in [12] and 23 µM with HCT116-G31D. The EC50 in test [6] is > 25 µM; in test [11], > 25 µM; in test [3], > 25 µM; in test [7] it was > 25 µM; in [8], > 25 µM; in test [4] it was 3 µM. Also, the EC50 in test [10] and in test [5] was > 25 µM in each case.

Turning to `COCCN1C(=O)CCc2cc(-c3csc(NC(=O)c4c(C)nn(C)c4C)n3)ccc21` [Compound 120, N-(4-(1-(2-methoxyethyl)-2-oxo-1,2,3,4-tetrahydroquinoinolin-6-yl)thiazol-2-yl)-1,3,5-trimethyl-1H-pyrazole-4-carboxamide], the IC50 in test [1] came out at 10 µM; at K-Ras G12D, 3.4 µM; against wild type K-Ras, 11.9 µM; in the test on Panc10.05-G12D it was 0.802 µM; in [2], 13 µM; in the test on Panc1-G12D it was 4 µM. Besides, the IC50 in [9] is 4 µM; in test [12], 20 µM; in the test on HCT116-G31D, > 25 µM. The EC50 is 3 µM in test [6]; > 25 µM in test [11]; 5 µM in test [3]; > 25 µM in test [7]; 24 µM in test [8]; 1.2 µM in [4]. For the same compound, the results for the EC50 in [10] and in [5] were 26 µM and 5 µM, respectively.

Regarding `Cc1nn(Cc2ccccc2)c(C)c1C(=O)Nc1nc(-c2ccc3c(c2)CCC(=O)N3)cs1` [Compound 56, 1-benzyl-3,5-dimethyl-N-(4-(2-oxo-1,2,3,4-tetrahydroquinolin-6-yl)thiazol-2-yl)-1H-pyrazole-4-carboxamide], the IC50 amounted to 7 µM in [1]; 6.6 µM at K-Ras G12D; 19.2 µM against wild type K-Ras; 7 µM with Panc10.05-G12D; 12 µM in test [2]; 9 µM in the test with Panc1-G12D. Besides, the IC50 in test [9] came out at 7 µM; in test [12], 4 µM; in the test on HCT116-G31D, 6 µM. The EC50 is 9 µM in test [6]; > 25 µM in test [11]; 3 µM in test [3]; > 25 µM in [7]; 16 µM in [8]; 3 µM in test [4]. Further, the EC50 in [10] is 27 µM; in test [5] it was 21 µM.

`Cc1nn(C(C)C)c(C)c1C(=O)Nc1nc(-c2ccc3c(c2)CCC(=O)N3Cc2cccnc2)cs1` [Compound 117, 1-isopropyl-3,5-dimethyl-N-(4-(2-oxo-1-(pyridin-3-ylmethyl)-1,2,3,4-tetrahydroquinolin-6-yl)thiazol-2-yl)-1H-pyrazole-4-carboxamide]: the IC50 is 5 µM in test [1]; 2.6 µM at K-Ras G12D; 6.7 µM at wild type K-Ras; 1.4 µM in the test with Panc10.05-G12D; > 25 µM in test [2]; 3 µM with Panc1-G12D. In addition, the IC50 in [9] was 4 µM; in test [12], 14 µM; in the test on HCT116-G31D, > 25 µM. Further, the EC50 in test [6] is 4 µM; in test [11], > 25 µM; in test [3] it was 4 µM; in [7] it was > 25 µM; in test [8], 15 µM; in test [4] it was 0.914 µM. The EC50 in test [10] amounted to 23 µM; in test [5] it was 3 µM.
